Source: US20160082015A1, “METHODS, COMPOSITIONS AND KITS FOR PROMOTING MOTOR NEURON SURVIVAL AND TREATING AND DIAGNOSING NEURODEGENERATIVE DISORDERS” (PRESIDENT AND FELLOWS OF HARVARD COLLEGE, priority 2013, published 2016)
“Also recorded” adds a separate entry of the source.

Key:
[1] = test system: endogenous mouse SOD1 protein; test: SOD1 protein levels by Western blotting; type: cell-based; conditions: HB9::GFP or SOD1^G93A/HB9::GFP cultures
Protocol: Since the additional death undergone by the SOD1^G93A/HB9::GFP MNs seems likely to relate to their expression of high levels of SOD1^G93A protein, one possibility is that kenpaullone could act in part by reducing those levels. Kenpaullone was added to cultures on day 4, and the levels of mutant SOD1^G93A protein were analyzed by Western blotting on day 21 (FIGS. 5A and 5B). […] The endogenous mouse SOD1 protein was not affected in either HB9::GFP or SOD1^G93A/HB9::GFP cultures (data not shown). In addition, the inventors discovered that kenpaullone had no effect on the levels of wild-type human SOD1 in cultures produced from an ESC line that overexpresses a wild-type human SOD1 transgene (wtSOD1/Hb9::GFP) (FIGS. SA mad SB). […] However, when the inventors used single cell confocal imaging to examine SOD1^G93A levels specifically in GFP^+ cells, it was clear that the SOD1^G93A levels in MNs were reduced, both in the presence and absence of trophic factors (FIG. 5C).

[2] = test system: Hb9:GFP MNs; test: MN survival in co-culture with wild-type or SOD1^G93A astrocytes; type: cell-based, mouse; conditions: nine days of compound treatment, trophic factors present
Protocol: FIGS. 3A and 3B show line graphs showing effects of kenpaullone and GSK-3 inhibitor VIII on MN death induced by treatment with a PI3K inhibitor. LY294002 was added to cultures on day 4, with or without concurrent treatment with 10 μM kenpaullone or 10 μM GSK-3 inhibitor VIII. Cells were fixed on day 7 for survival analysis. Survival is measured with respect to cells treated with DMSO alone. FIG. 3C is a bar graph showing that Kenpaullone also blocks death of MNs accelerated by co-culture with SOD1^G93A astrocytes. Hb9:GFP MNs were FACS sorted and plated on a confluent monolayer of wild-type or SOD1^G93A astrocytes. Kenpaullone was added to cultures 24 hrs later and was refreshed every three days by replacing half of the old medium with fresh medium containing IX concentration of the compound. Cells were fixed after nine days of compound treatment and MN survival was determined. Trophic factors were present throughout the experiment. Data are presented as percent survival normalized to that of DMSO treated MNs plated on wild-type astrocytes. Again, kenpaullone was effective in decreasing the extent of death. * p<0.05, ** p<0.01, *** p<0.001 (Student's t test, two-tailed). Data are presented as mean±SEM. […]

[3] = test system: SOD1^G93A protein; test: SOD1 protein levels by Western blotting and single cell imaging; type: cell-based, human
Protocol: In FIG. 5A cultures grown for 21 days in the indicated conditions were analyzed for levels of human SOD1 protein. The antibody used was specific for human SOD1, as is seen by the lack of staining on wild-type mouse MNs (HB9::GFP). When analyzed on day 21, levels of mutant SOD1^G93A protein, but not wt SOD1 protein, were decreased when cells were treated with kenpaullone in the absence of trophic factors. When analyzed on day 21, SOD1^G93A protein, but not wt SOD1 protein, was decreased when cultures were treated with kenpaullone in the presence of trophic factors as well (FIG. 5B). […] By this analysis, again on day 21, the average amount of SOD1 per MN was decreased by kenpaullone treatment in both +TF and −TF conditions. Scale bar represents 50 μm (FIG. 5C). Data are presented as mean±SEM. * p<0.05, *** p<0.001 (Student's t test, two-tailed).
Immunostaining was carried out using standard protocols (Makhortova et al., 2011). […]
Since the additional death undergone by the SOD1^G93A/HB9::GFP MNs seems likely to relate to their expression of high levels of SOD1^G93A protein, one possibility is that kenpaullone could act in part by reducing those levels. Kenpaullone was added to cultures on day 4, and the levels of mutant SOD1^G93A protein were analyzed by Western blotting on day 21 (FIGS. 5A and 5B). […]

[4] = target: T1, MLK3 (Homo sapiens, UniProt Q16584); test: Kinase activity assay with MBP substrate; type: biochemical; conditions: recombinant kinase, myelin basic protein substrate
T1 construct: purchased SignalChem
T1 sequence (Q16584 whole entry): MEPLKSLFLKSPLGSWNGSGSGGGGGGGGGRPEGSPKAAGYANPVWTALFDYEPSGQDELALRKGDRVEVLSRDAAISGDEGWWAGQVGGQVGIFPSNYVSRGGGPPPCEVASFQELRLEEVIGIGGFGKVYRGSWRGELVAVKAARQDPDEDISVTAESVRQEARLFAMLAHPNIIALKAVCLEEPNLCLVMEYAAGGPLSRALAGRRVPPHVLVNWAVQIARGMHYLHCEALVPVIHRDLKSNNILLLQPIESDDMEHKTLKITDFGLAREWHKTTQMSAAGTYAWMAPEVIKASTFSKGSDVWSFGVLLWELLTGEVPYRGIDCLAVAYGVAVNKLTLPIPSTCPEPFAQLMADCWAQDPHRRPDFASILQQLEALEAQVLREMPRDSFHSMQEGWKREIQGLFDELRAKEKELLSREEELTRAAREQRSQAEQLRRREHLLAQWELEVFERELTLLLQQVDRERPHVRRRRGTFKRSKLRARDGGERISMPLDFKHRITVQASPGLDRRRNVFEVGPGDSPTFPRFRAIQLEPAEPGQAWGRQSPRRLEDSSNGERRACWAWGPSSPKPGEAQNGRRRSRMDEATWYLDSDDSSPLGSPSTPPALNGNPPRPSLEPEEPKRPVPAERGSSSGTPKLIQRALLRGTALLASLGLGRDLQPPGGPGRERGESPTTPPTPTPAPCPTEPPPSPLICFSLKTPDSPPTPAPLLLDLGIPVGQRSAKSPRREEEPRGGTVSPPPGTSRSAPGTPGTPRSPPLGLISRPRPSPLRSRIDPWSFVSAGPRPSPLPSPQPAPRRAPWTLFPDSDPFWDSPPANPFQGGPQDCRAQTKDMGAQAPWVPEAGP
Source text: (§1) The enzymatic reaction was stopped with Laemmli buffer and samples were separated in a polyacrylamide gel. Finally, the gel was exposed to a Storage Phosphor Screen (GE Healthcare) and scanned in a Typhoon 9400 scanner (GE Healthcare). Signal density was estimated with Quantity One software (Bio-Rad).

[5] = target: HGK (Homo sapiens, UniProt O95819); test: Kinase activity assay with MBP substrate; type: biochemical; conditions: recombinant kinase, myelin basic protein substrate
Sequence of HGK (O95819 whole entry): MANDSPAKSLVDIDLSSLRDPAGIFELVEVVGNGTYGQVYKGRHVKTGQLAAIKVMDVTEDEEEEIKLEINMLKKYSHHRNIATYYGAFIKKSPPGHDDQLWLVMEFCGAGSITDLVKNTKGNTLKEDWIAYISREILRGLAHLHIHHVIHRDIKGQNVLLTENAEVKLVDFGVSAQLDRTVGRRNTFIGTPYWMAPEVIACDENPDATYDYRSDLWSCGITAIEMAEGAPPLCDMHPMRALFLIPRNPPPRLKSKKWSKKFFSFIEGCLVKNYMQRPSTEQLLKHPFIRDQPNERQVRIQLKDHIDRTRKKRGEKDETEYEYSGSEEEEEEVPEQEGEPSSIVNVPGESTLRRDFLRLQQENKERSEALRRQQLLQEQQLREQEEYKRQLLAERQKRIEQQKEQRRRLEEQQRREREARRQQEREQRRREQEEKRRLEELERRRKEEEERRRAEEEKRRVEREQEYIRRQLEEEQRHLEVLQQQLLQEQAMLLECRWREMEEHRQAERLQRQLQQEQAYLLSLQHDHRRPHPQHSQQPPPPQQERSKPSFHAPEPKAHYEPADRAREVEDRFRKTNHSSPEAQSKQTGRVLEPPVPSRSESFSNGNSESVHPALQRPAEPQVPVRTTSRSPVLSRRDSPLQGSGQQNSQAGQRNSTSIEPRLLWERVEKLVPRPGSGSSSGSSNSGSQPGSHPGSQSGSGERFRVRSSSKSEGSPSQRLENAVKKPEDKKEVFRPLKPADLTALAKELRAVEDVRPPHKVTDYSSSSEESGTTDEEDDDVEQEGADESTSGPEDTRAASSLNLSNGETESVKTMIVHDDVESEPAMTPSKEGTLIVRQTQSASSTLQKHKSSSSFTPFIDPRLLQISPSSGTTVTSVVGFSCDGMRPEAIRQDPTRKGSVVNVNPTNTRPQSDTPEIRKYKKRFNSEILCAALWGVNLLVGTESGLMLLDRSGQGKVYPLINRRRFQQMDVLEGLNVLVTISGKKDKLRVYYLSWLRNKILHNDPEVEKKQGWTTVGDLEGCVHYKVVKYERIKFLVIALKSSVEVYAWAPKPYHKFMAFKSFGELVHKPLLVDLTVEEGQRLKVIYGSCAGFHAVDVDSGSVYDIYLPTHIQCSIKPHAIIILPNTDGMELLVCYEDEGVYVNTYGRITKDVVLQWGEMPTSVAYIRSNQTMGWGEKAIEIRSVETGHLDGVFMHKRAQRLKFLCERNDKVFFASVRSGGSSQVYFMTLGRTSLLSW
Source text: as §1

[6] = test system: HB9::GFP MNs; test: Mouse MN survival assay, trophic factor withdrawal; conditions: for survival of HB9::GFP MNs: trophic factors removed and compound added day 4, fixed day 7
Protocol: For the small molecule screen or for standard survival assays, freshly dissociated EBs were plated at a density of 8,000 GFP^+ cells (384-well) or 30.000 GFP+ cells (96-well) per well. Four days later (day 4), trophic factors (BDNF, GDNF and CNTF) were removed, and individual compounds were added to the wells. For the primary screen each was tested at three concentrations (0.1 μM, 1 μM and 10 μM) in duplicate. […] The number of MNs surviving was analyzed by counting the remaining GFP^+ cells in the whole well. Total cell numbers were obtained by counting Hoechst-positive nuclei. A size threshold was set based on control cultures to eliminate apoptotic MNs Unless stated otherwise, survival is measured as fold-increase compared to cultures maintained without trophic factors.
For long-term MN survival assays, MN cultures were fed with fresh medium and compounds every two days until fixation and quantification as above.
All primary hits were subsequently tested in a nine-point dose-response assay, using the same screening protocol.

O=C1Cc2c([nH]c3ccc(Br)cc23)-c2ccccc2N1 [Kenpaullone]
endogenous mouse SOD1 protein [1]: not affected
MN survival on SOD1^G93A astrocytes [2]: improved survival
MN survival on wild-type astrocytes [2]: improved survival
levels of SOD1^G93A protein ([3]; added day 4, Western blotting day 21, with and without trophic factors): sharp decrease
mutant protein levels, untreated versus treated cultures ([3]; until sometime after 15 days of treatment): no differences
MLK3 activity [4]: not
HGK activity [5]: inhibited; also recorded: strongly inhibits
MN survival effect after Ara-C treatment to eliminate dividing progenitors ([6]; Ara-C before trophic factor withdrawal): did not decrease the effect
long-term survival of MNs without trophic factors ([6]; days 7, 14, 21 and 28): improved survival
MN death in complete medium (+TF) ([6]; first two weeks): reduced the death
survival of FACS purified MNs ([6]; highly enriched Hb9::GFP MN cultures, Ara-C, trophic factors removed): still able to promote survival
survival of HB9::GFP MNs [6]: strong effects
survival of HB9::GFP MNs ([6]; listed as kenpaullone): potent survival promoting effects
